For 14 compounds, IC50 and Ki results are on record in ChEMBL document CHEMBL1909046, “DrugMatrix in vitro pharmacology data”.

Series [1] has as its target Beta-1 adrenergic receptor (Homo sapiens, UniProt P08588). Nature of the series: DRUGMATRIX: Adrenergic beta1 radioligand binding (ligand: [125I] Cyanopindolol). The format is cell membranes, CHO-K1, Membrane. The note with it: cho-k1; Not Active = under 50% inhibition at 10 µM.
The nature of series [2]: DRUGMATRIX: Tumor Necrosis Factor (TNF), Non-Selective radioligand binding (ligand: [125I] TNF-alpha). The series is classed as cell membranes, Membrane. The note with it: u-937; Not Active = under 50% inhibition at 10 µM.
Series [3] has as its target T1, 3-hydroxy-3-methylglutaryl-coenzyme A reductase (Homo sapiens, UniProt P04035).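 Note: enzyme inhibition assay of HMG-CoA reductase using radiolabeled [14C]HMG-CoA as substrate; in other assays of this panel Not Active means under 50% inhibition at 10 µM.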
T1 sequence (P04035 whole entry): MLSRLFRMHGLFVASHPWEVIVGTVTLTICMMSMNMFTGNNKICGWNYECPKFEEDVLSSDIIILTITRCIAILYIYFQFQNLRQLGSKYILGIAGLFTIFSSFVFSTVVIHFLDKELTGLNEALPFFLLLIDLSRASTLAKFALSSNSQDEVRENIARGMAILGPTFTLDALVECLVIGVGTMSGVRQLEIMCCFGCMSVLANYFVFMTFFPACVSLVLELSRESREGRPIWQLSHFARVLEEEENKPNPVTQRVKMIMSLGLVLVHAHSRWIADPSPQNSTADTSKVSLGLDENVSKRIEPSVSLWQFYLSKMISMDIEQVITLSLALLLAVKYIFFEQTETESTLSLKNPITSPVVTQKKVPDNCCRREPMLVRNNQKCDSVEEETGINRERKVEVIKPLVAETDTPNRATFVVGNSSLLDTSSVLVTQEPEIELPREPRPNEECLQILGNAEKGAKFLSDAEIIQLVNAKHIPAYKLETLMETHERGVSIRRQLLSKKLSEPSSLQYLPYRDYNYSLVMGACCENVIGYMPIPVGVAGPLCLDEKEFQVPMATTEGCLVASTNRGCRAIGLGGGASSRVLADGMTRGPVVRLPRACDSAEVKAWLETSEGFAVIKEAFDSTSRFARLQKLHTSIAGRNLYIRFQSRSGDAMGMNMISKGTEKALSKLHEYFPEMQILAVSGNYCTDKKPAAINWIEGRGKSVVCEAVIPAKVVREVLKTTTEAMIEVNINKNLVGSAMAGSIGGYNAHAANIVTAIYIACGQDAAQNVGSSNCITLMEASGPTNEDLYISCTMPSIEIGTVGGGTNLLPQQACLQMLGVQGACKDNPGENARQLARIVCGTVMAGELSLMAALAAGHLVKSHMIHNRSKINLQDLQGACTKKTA
Also noted: species or system Escherichia coli.

Series [4] is described as follows: DRUGMATRIX: Phosphodiesterase PDE4 enzyme inhibition (substrate: [3H]cAMP + cAMP). The note with it: u-937; Not Active = under 50% inhibition at 10 µM.
Series [5] deals with Matrix metalloproteinase-9 (Homo sapiens, UniProt P14780). The series is classed as cell-based.
For series [6], the target named is 5-hydroxytryptamine receptor 1B (Rattus norvegicus, UniProt P28564). The format is cell membranes, Wistar, Cerebral cortex, Membrane. Note: in other assays of this panel Not Active means under 50% inhibition at 10 µM.
A further series deals with Cytochrome P450 2C9 (Homo sapiens, UniProt P11712). The note with it: bti-tn-5b1-4.
Another series deals with Cytochrome P450 3A4 (Homo sapiens, UniProt P08684). The note with it: bti-tn-5b1-4.
Sequence of Cytochrome P450 3A4 (P08684 whole entry): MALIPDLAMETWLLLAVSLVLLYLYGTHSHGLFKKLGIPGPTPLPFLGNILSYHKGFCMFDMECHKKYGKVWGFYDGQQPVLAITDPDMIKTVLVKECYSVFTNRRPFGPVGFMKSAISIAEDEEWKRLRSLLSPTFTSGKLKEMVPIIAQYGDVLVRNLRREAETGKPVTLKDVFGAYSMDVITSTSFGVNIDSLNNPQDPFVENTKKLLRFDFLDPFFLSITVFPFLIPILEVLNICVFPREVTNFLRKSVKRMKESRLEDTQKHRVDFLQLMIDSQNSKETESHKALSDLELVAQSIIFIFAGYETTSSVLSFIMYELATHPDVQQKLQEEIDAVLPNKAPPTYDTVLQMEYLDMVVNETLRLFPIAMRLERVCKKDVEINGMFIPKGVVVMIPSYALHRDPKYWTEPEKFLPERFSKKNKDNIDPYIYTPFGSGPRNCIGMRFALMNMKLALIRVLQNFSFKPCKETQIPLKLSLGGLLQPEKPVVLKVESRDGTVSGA

Sequence of Cytochrome P450 2C9 (P11712 whole entry): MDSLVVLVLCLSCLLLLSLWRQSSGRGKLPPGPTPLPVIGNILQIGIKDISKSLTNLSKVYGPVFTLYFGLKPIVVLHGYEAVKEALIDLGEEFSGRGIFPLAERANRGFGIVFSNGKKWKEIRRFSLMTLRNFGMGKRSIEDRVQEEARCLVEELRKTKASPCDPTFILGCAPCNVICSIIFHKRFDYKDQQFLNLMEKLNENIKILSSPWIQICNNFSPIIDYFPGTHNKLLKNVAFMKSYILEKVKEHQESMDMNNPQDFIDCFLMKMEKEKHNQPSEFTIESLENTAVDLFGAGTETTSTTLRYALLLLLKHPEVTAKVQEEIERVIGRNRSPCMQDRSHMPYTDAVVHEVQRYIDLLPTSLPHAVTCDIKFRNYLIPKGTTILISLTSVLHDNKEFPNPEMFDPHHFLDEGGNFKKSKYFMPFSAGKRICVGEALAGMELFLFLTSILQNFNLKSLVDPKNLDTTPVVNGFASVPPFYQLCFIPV
Sequence of Beta-1 adrenergic receptor (P08588 whole entry): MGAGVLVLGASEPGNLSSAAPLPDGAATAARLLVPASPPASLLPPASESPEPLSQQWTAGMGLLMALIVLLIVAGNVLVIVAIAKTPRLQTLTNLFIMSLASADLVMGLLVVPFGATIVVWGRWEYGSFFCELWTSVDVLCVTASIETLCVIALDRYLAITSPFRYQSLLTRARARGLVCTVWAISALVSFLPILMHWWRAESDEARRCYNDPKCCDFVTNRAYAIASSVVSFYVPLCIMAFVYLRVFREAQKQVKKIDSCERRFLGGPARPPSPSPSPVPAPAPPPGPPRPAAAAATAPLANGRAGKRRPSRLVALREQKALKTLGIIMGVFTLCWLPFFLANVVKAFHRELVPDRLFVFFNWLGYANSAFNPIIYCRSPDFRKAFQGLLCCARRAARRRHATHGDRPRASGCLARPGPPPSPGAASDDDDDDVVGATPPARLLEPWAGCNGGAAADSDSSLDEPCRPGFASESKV
Sequence of Matrix metalloproteinase-9 (P14780 whole entry): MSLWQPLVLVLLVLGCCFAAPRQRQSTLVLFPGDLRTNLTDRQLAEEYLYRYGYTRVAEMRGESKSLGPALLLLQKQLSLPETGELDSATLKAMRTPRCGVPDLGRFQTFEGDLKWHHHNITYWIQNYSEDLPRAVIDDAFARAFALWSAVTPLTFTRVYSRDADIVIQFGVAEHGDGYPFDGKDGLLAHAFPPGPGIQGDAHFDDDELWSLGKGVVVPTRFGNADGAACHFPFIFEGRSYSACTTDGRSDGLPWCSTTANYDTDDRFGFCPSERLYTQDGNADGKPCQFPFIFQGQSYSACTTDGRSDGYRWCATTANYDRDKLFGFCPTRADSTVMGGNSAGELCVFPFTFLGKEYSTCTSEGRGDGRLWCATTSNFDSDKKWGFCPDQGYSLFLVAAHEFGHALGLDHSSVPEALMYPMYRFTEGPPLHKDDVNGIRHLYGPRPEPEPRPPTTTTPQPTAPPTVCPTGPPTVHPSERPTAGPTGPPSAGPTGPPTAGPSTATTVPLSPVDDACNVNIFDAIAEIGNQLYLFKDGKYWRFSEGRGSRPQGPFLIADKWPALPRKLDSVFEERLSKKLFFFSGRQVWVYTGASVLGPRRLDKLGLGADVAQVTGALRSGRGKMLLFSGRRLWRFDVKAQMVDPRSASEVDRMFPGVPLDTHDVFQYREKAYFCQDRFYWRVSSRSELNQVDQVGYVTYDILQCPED
Sequence of 5-hydroxytryptamine receptor 1B (P28564 whole entry): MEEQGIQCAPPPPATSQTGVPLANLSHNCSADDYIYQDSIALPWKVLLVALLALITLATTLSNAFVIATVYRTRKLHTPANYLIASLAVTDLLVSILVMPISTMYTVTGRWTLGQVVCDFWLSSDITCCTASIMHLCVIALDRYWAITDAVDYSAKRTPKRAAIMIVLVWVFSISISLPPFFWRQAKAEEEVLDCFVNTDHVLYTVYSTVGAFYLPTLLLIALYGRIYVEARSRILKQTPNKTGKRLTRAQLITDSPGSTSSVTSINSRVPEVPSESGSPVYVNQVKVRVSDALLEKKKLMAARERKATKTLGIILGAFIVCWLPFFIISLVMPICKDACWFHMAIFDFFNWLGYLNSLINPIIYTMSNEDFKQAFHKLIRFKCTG

In the case of `Cc1cc(C(C)(C)C)c(O)c(C)c1CC1=NCCN1` [OXYMETAZOLINE], the half-maximal inhibitory concentration (IC50) result in series [1] was “Not Active”; in series [2], “Not Active”; in series [3], “Not Active”; in series [4], “Not Active”; in series [5], “Not Active”; in series [6] (read-out: IC50), 2 nM. Moreover, the IC50 result against Cytochrome P450 2C9 and against Cytochrome P450 3A4 was “Not Active” each time. In addition, the Ki result in series [2] is “Not Active”; in series [4] it was “Not Active”; in series [6] (read-out: Ki) it was 0.909 nM; on Cytochrome P450 2C9, “Not Active”; at Cytochrome P450 3A4, “Not Active”.
On to `CC12CCC(CC1=O)C2(C)C` (centres undefined) [CAMPHOR], for which the half-maximal inhibitory concentration (IC50) result in series [1], in series [2], in series [3], in series [4], in series [5] and in series [6] was “Not Active” each time. For the same compound, the IC50 entry at Cytochrome P450 2C9 and against Cytochrome P450 3A4 was “Not Active” throughout. Besides, the Ki result (in series [2]; in series [4]; at Cytochrome P450 2C9; on Cytochrome P450 3A4) was “Not Active” in each case.
Turning to `CCC1(c2ccccc2)C(=O)NC(=O)NC1=O` [PHENOBARBITAL], the half-maximal inhibitory concentration (IC50) entry in series [1], in series [2], in series [3], in series [4], in series [5] and in series [6] was “Not Active” throughout. Further, the IC50 entry against Cytochrome P450 2C9 and at Cytochrome P450 3A4 was “Not Active” throughout. In addition, the inhibitory constant (Ki) result (in series [2]; in series [4]; at Cytochrome P450 2C9; on Cytochrome P450 3A4) was “Not Active” each time.
Turning to `C[N+](C)(C)CCOP(=O)([O-])OC[C@H](O)CO`, the IC50 result in series [1], in series [2], in series [3], in series [4], in series [5] and in series [6] was “Not Active” each time. Moreover, the IC50 entry against Cytochrome P450 2C9 and at Cytochrome P450 3A4 was “Not Active” throughout. In addition, the Ki result (in series [2]; in series [4]; at Cytochrome P450 2C9; at Cytochrome P450 3A4) was “Not Active” in each case.
With `Oc1ccccc1` [PHENOL], the IC50 result in series [1], in series [2], in series [3], in series [4], in series [5] and in series [6] was “Not Active” each time. Besides, the IC50 result at Cytochrome P450 2C9 and against Cytochrome P450 3A4 was “Not Active” in each case. Moreover, the Ki result (in series [2]; in series [4]; on Cytochrome P450 2C9; on Cytochrome P450 3A4) was “Not Active” each time.
Regarding `Nc1nc(F)nc2c1ncn2[C@@H]1O[C@H](CO)[C@@H](O)[C@@H]1O` [FLUDARABINE], the IC50 entry in series [1], in series [2], in series [3], in series [4], in series [5] and in series [6] was “Not Active” in each case. Besides, the IC50 result against Cytochrome P450 2C9 and at Cytochrome P450 3A4 was “Not Active” throughout. Moreover, the Ki result (in series [2]; in series [4]; on Cytochrome P450 2C9; at Cytochrome P450 3A4) was “Not Active” in each case.
Turning to `c1ccc(Cn2ccnc2)cc1`, the IC50 entry in series [1], in series [2], in series [3], in series [4], in series [5] and in series [6] was “Not Active” each time. In addition, the IC50 entry against Cytochrome P450 2C9 and at Cytochrome P450 3A4 was “Not Active” each time. In addition, the inhibitory constant (Ki) result (in series [2]; in series [4]; on Cytochrome P450 2C9; on Cytochrome P450 3A4) was “Not Active” throughout.
In the case of `Nc1nc(N)c2nc(CNc3ccc(C(=O)N[C@@H](CCC(=O)O)C(=O)O)cc3)cnc2n1` [AMINOPTERIN], the concentration for half-maximal inhibition (IC50) result in series [1], in series [2], in series [3], in series [4], in series [5] and in series [6] was “Not Active” throughout. The IC50 entry at Cytochrome P450 2C9 and against Cytochrome P450 3A4 was “Not Active” in each case. The Ki entry (in series [2]; in series [4]; on Cytochrome P450 2C9; on Cytochrome P450 3A4) was “Not Active” throughout.
For the compound `C=C(Cl)Cl` [1,1-DICHLOROETHENE], the IC50 result in series [1], in series [2], in series [3], in series [4], in series [5] and in series [6] was “Not Active” in each case. The IC50 result against Cytochrome P450 2C9 and at Cytochrome P450 3A4 was “Not Active” each time. For the same compound, the inhibitory constant (Ki) result (in series [2]; in series [4]; on Cytochrome P450 2C9; on Cytochrome P450 3A4) was “Not Active” in each case.
As for `Oc1ncnc2[nH]ncc12` [ALLOPURINOL], the IC50 result in series [1], in series [2], in series [3], in series [4], in series [5] and in series [6] was “Not Active” each time. Moreover, the IC50 entry at Cytochrome P450 2C9 and against Cytochrome P450 3A4 was “Not Active” in each case. For the same compound, the Ki result (in series [2]; in series [4]; at Cytochrome P450 2C9; at Cytochrome P450 3A4) was “Not Active” in each case.
On to `O=C(O)CCc1nc(-c2ccccc2)c(-c2ccccc2)o1` [OXAPROZIN], for which the IC50 entry in series [1], in series [2], in series [3], in series [4], in series [5] and in series [6] was “Not Active” throughout. Also, the IC50 entry against Cytochrome P450 2C9 and on Cytochrome P450 3A4 was “Not Active” each time. Further, the Ki result (in series [2]; in series [4]; on Cytochrome P450 2C9; on Cytochrome P450 3A4) was “Not Active” in each case.
Consider `ClC1=C(Cl)[C@]2(Cl)[C@@H]3[C@@H]4C[C@@H]([C@H]5O[C@@H]45)[C@@H]3[C@@]1(Cl)C2(Cl)Cl` [DIELDRIN], for which the IC50 entry in series [1], in series [2], in series [3], in series [4], in series [5] and in series [6] was “Not Active” each time. Moreover, the IC50 entry against Cytochrome P450 2C9 and against Cytochrome P450 3A4 was “Not Active” in each case. The Ki result (in series [2]; in series [4]; at Cytochrome P450 2C9; on Cytochrome P450 3A4) was “Not Active” throughout.
For the compound `CC1(COc2ccc(CC3SC(=O)NC3=O)cc2)CCCCC1` (centres undefined) [CIGLITAZONE], the IC50 entry in series [1], in series [2], in series [3], in series [4], in series [5] and in series [6] was “Not Active” throughout. The IC50 result against Cytochrome P450 2C9 and against Cytochrome P450 3A4 was “Not Active” in each case. In addition, the Ki entry (in series [2]; in series [4]; at Cytochrome P450 2C9; at Cytochrome P450 3A4) was “Not Active” each time.
For `OC[C@H]1O[C@@H]2O[C@H]3[C@H](O)[C@@H](O)[C@@H](O[C@H]4[C@H](O)[C@@H](O)[C@@H](O[C@H]5[C@H](O)[C@@H](O)[C@@H](O[C@H]6[C@H](O)[C@@H](O)[C@@H](O[C@H]7[C@H](O)[C@@H](O)[C@@H](O[C@H]8[C@H](O)[C@@H](O)[C@@H](O[C@H]1[C@H](O)[C@H]2O)O[C@@H]8CO)O[C@@H]7CO)O[C@@H]6CO)O[C@@H]5CO)O[C@@H]4CO)O[C@@H]3CO` [BETADEX], the IC50 entry in series [1], in series [2], in series [3], in series [4], in series [5] and in series [6] was “Not Active” each time. The IC50 entry at Cytochrome P450 2C9 and at Cytochrome P450 3A4 was “Not Active” in each case. Also, the inhibitory constant (Ki) entry (in series [2]; in series [4]; on Cytochrome P450 2C9; on Cytochrome P450 3A4) was “Not Active” throughout.

One may read the IC50 as the concentration that inhibits the measured activity by half. As a reminder, the Ki is a measure of affinity in units of concentration, obtained from inhibition or displacement.
